Results as given in ChEMBL document CHEMBL1201862, “PubChem BioAssay data set” (2004).
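Step 1: Grow cells in 96-well plates. Step 2: Expose to compound for 48 hours at 5 concentrations. Step 3: Interpolate endpoints linearly; if unreached, use highest concentration. GI50: concentration for 50% inhibition of growth.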 Activity calls are given as the source filed them. No stated cut-off is given here; in the data, active = GI50 up to about 1.1 µM and inactive = higher.

Experiments:
Experiment in all cases: inhibition of tumour cell growth, NCI panel, 48 h
HL-60 = system: HL-60
K562 = system: K562
KM12 = system: KM12
LOX IMVI = system: LOX IMVI
M14 = system: M14
MDA-MB-231 = system: MDA-MB-231
MDA-MB-435 = system: MDA-MB-435
MDA-N = system: MDA-N
NCI-H460 = system: NCI-H460
OVCAR-3 = system: OVCAR-3
RPMI-8226 = system: RPMI-8226
RXF 393 = system: RXF 393
SF-539 = system: SF-539
SK-MEL-28 = system: SK-MEL-28
SK-MEL-2 = system: SK-MEL-2
U-251 = system: U-251
UACC-257 = system: UACC-257
UACC-62 = system: UACC-62
UO-31 = system: UO-31
CAKI-1 = system: CAKI-1

| SMILES | GI50 (HL-60) | GI50 (K562) | GI50 (KM12) | GI50 (LOX IMVI) | GI50 (M14) | GI50 (MDA-MB-231) | GI50 (MDA-MB-435) | GI50 (MDA-N) | GI50 (NCI-H460) | GI50 (OVCAR-3) | GI50 (RPMI-8226) | GI50 (RXF 393) | GI50 (SF-539) | GI50 (SK-MEL-28) | GI50 (SK-MEL-2) | GI50 (U-251) | GI50 (UACC-257) | GI50 (UACC-62) | GI50 (UO-31) | GI50 (CAKI-1) |
| --- | --- | --- | --- | --- | --- | --- | --- | --- | --- | --- | --- | --- | --- | --- | --- | --- | --- | --- | --- | --- |
| CC(=O)CSCc1ccccn1 | 29.1 µM (inactive) | 23.6 µM (inactive) | 36.8 µM (inactive) | 41.5 µM (inactive) | 60.5 µM (inactive) | 75.9 µM (inactive) | 33.4 µM (inactive) | 37.8 µM (inactive) | 30.6 µM (inactive) | 30.3 µM (inactive) | 12.7 µM (inactive) | > 100 µM (inactive) | 27 µM (inactive) | 40.2 µM (inactive) | 25.9 µM (inactive) | 32.2 µM (inactive) | 41.1 µM (inactive) | 31.3 µM (inactive) | > 100 µM (inactive) | – |
| Cc1cc(N(CCC#N)S(=O)(=O)c2ccccc2)ccc1/C=N/c1ccc(C(=O)O)cc1 | 5.21 µM (inactive) | 7.96 µM (inactive) | 20.4 µM (inactive) | 13.2 µM (inactive) | 9.77 µM (inactive) | > 100 µM (inactive) | > 100 µM (inactive) | > 100 µM (inactive) | 19.1 µM (inactive) | 10.1 µM (inactive) | – | 1.7 µM (inactive) | 15.2 µM (inactive) | 15.3 µM (inactive) | 6.7 µM (inactive) | 21.3 µM (inactive) | 16.9 µM (inactive) | 17.4 µM (inactive) | 11.1 µM (inactive) | 2.23 µM (inactive) |
| CCOC(=O)c1nc2ccccc2nc1NCc1cc(OC)c(OC)c(OC)c1 | 33.3 µM (inactive) | 27.8 µM (inactive) | 34.4 µM (inactive) | 47 µM (inactive) | – | 27.4 µM (inactive) | 20.3 µM (inactive) | 14.8 µM (inactive) | 28.8 µM (inactive) | 75.5 µM (inactive) | 25.2 µM (inactive) | 14.9 µM (inactive) | > 100 µM (inactive) | 58.3 µM (inactive) | – | 42.1 µM (inactive) | 75 µM (inactive) | 36.8 µM (inactive) | 24.6 µM (inactive) | 70.6 µM (inactive) |
| N#Cc1c(-c2ccccc2)c(C=O)c(=O)n2c1[nH]c1ccccc12 | 56.9 µM (inactive) | 67 µM (inactive) | 60.1 µM (inactive) | – | 97.5 µM (inactive) | 38.2 µM (inactive) | 67.1 µM (inactive) | 84.3 µM (inactive) | > 100 µM (inactive) | – | 63.2 µM (inactive) | 42.5 µM (inactive) | 77.1 µM (inactive) | 23.9 µM (inactive) | 33 µM (inactive) | 50.8 µM (inactive) | > 100 µM (inactive) | 40.7 µM (inactive) | 40.6 µM (inactive) | > 100 µM (inactive) |
| CCN(CC)Cc1cc(Nc2c3ccccc3nc3c2[nH]c2ccccc23)cc(CN(CC)CC)c1O | 2.86 µM (inactive) | 0.631 µM (active) | 0.552 µM (active) | – | 0.303 µM (active) | 1.05 µM (active) | 0.701 µM (active) | 0.815 µM (active) | 0.294 µM (active) | – | – | 0.28 µM (active) | 1.08 µM (active) | 2.4 µM (inactive) | 1.62 µM (inactive) | 0.513 µM (active) | 1.42 µM (inactive) | 1.55 µM (inactive) | 1.68 µM (inactive) | 1.77 µM (inactive) |
| CC(C)(C)OC(=O)NCC(=O)NC1C/C(=N\O)c2sccc21 (centres undefined) | > 100 µM (inactive) | > 100 µM (inactive) | – | > 100 µM (inactive) | > 100 µM (inactive) | > 100 µM (inactive) | > 100 µM (inactive) | > 100 µM (inactive) | > 100 µM (inactive) | > 100 µM (inactive) | – | > 100 µM (inactive) | > 100 µM (inactive) | > 100 µM (inactive) | > 100 µM (inactive) | > 100 µM (inactive) | > 100 µM (inactive) | > 100 µM (inactive) | > 100 µM (inactive) | > 100 µM (inactive) |
| C#CC[C@@H]1C(=O)N(Cc2ccc(OC)cc2)[C@@H](C(C)C)C(=O)N1Cc1ccc(OC)cc1 | 3.66 µM (inactive) | 32.4 µM (inactive) | 35.8 µM (inactive) | 36.4 µM (inactive) | 36.5 µM (inactive) | 83.2 µM (inactive) | 36.1 µM (inactive) | 22.9 µM (inactive) | 30.7 µM (inactive) | 51.4 µM (inactive) | – | 2.79 µM (inactive) | 29.2 µM (inactive) | 84.7 µM (inactive) | 19.9 µM (inactive) | 39.7 µM (inactive) | 29.9 µM (inactive) | 25.2 µM (inactive) | 33.7 µM (inactive) | > 100 µM (inactive) |
| CN1C(=O)N(C)C2(CCN(CCCCCCF)CC2)C1=O | > 100 µM (inactive) | > 100 µM (inactive) | > 100 µM (inactive) | > 100 µM (inactive) | > 100 µM (inactive) | > 100 µM (inactive) | 26 µM (inactive) | > 100 µM (inactive) | – | > 100 µM (inactive) | > 100 µM (inactive) | > 100 µM (inactive) | > 100 µM (inactive) | > 100 µM (inactive) | – | > 100 µM (inactive) | > 100 µM (inactive) | > 100 µM (inactive) | > 100 µM (inactive) | > 100 µM (inactive) |
| C=C(CC)C[C@@H]1C[C@]2(C(=O)OC)c3[nH]c4ccccc4c3CCN2C1=O | 23.4 µM (inactive) | 18.9 µM (inactive) | 24.4 µM (inactive) | 17.3 µM (inactive) | 15.6 µM (inactive) | 24.7 µM (inactive) | 19.3 µM (inactive) | 17.4 µM (inactive) | 21.1 µM (inactive) | 14.1 µM (inactive) | – | 12.2 µM (inactive) | 16.4 µM (inactive) | 19.5 µM (inactive) | 17.1 µM (inactive) | 21.1 µM (inactive) | 19.2 µM (inactive) | 16.9 µM (inactive) | 17.9 µM (inactive) | 16.9 µM (inactive) |
| O=c1c2cccnc2cc(-c2ccccc2)n1CCO | > 100 µM (inactive) | > 100 µM (inactive) | > 100 µM (inactive) | > 100 µM (inactive) | > 100 µM (inactive) | > 100 µM (inactive) | > 100 µM (inactive) | > 100 µM (inactive) | > 100 µM (inactive) | > 100 µM (inactive) | > 100 µM (inactive) | > 100 µM (inactive) | – | > 100 µM (inactive) | > 100 µM (inactive) | > 100 µM (inactive) | > 100 µM (inactive) | > 100 µM (inactive) | > 100 µM (inactive) | – |
| COC(=O)c1c(C)cccc1/C=C1/Cc2c(C)cccc2C1=O | > 100 µM (inactive) | – | > 100 µM (inactive) | 20.5 µM (inactive) | – | > 100 µM (inactive) | > 100 µM (inactive) | > 100 µM (inactive) | 67.9 µM (inactive) | > 100 µM (inactive) | 3.44 µM (inactive) | 25.4 µM (inactive) | > 100 µM (inactive) | > 100 µM (inactive) | – | 90.6 µM (inactive) | 3.1 µM (inactive) | > 100 µM (inactive) | > 100 µM (inactive) | > 100 µM (inactive) |
| COc1cccc(/C=C2\S/C(=N/Nc3nc(C)c(C)s3)NC2=O)c1O | 56.1 µM (inactive) | – | > 100 µM (inactive) | 95.7 µM (inactive) | > 100 µM (inactive) | > 100 µM (inactive) | > 100 µM (inactive) | > 100 µM (inactive) | > 100 µM (inactive) | 87.1 µM (inactive) | – | 79.4 µM (inactive) | > 100 µM (inactive) | > 100 µM (inactive) | > 100 µM (inactive) | > 100 µM (inactive) | > 100 µM (inactive) | 69.5 µM (inactive) | 74.1 µM (inactive) | > 100 µM (inactive) |
| CCOC(=O)/C(C#N)=C/c1ccc2c(-c3c(OCC)ccc4cc(/C=C(\C#N)C(=O)OCC)ccc34)c(OCC)ccc2c1 | > 100 µM (inactive) | > 100 µM (inactive) | > 100 µM (inactive) | > 100 µM (inactive) | 15.7 µM (inactive) | 18.5 µM (inactive) | > 100 µM (inactive) | > 100 µM (inactive) | > 100 µM (inactive) | > 100 µM (inactive) | > 100 µM (inactive) | > 100 µM (inactive) | – | > 100 µM (inactive) | > 100 µM (inactive) | > 100 µM (inactive) | > 100 µM (inactive) | > 100 µM (inactive) | > 100 µM (inactive) | > 100 µM (inactive) |
| O=C1/C(=C\c2ccc(O)cc2)CCC/C1=C/c1ccc(Cl)c(Cl)c1 | 1.96 µM (inactive) | 2.67 µM (inactive) | 1.7 µM (inactive) | 1.47 µM (inactive) | 2.13 µM (inactive) | 3.38 µM (inactive) | 3.15 µM (inactive) | 2.48 µM (inactive) | – | 3.67 µM (inactive) | 2.44 µM (inactive) | 2.38 µM (inactive) | – | 4.1 µM (inactive) | 18.6 µM (inactive) | 4.36 µM (inactive) | 4.19 µM (inactive) | 2.28 µM (inactive) | 2.75 µM (inactive) | 4.82 µM (inactive) |
| CC(C)=CCC/C(=C/CC/C(=C\CCc1ccoc1)C(=O)O)C(=O)O | > 100 µM (inactive) | > 100 µM (inactive) | > 100 µM (inactive) | > 100 µM (inactive) | > 100 µM (inactive) | > 100 µM (inactive) | > 100 µM (inactive) | > 100 µM (inactive) | – | > 100 µM (inactive) | > 100 µM (inactive) | > 100 µM (inactive) | > 100 µM (inactive) | > 100 µM (inactive) | > 100 µM (inactive) | > 100 µM (inactive) | > 100 µM (inactive) | > 100 µM (inactive) | > 100 µM (inactive) | > 100 µM (inactive) |
